According to PubChem BioAssay (NCI):
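Values below derive from 48-hour exposures of cells grown in 96-well plates, with endpoints linearly interpolated between the two concentrations bracketing the appropriate inhibition level. GI50 marks 50% less growth. TGI marks complete inhibition of growth.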

Assays:
Assay in all cases: growth of human tumour cells (NCI), 48 h
NCI-H23 lung = tested on: NCI-H23 lung
SF-268 CNS = tested on: SF-268 CNS
NCI-H522 lung = tested on: NCI-H522 lung
MALME-3M melanoma = tested on: MALME-3M melanoma
M14 melanoma = tested on: M14 melanoma
PC-3 prostate = tested on: PC-3 prostate
NCI-H226 lung = tested on: NCI-H226 lung
CCRF-CEM leukemia = tested on: CCRF-CEM leukemia
SF-539 CNS = tested on: SF-539 CNS
SK-MEL-2 melanoma = tested on: SK-MEL-2 melanoma
HL-60(TB) leukemia = tested on: HL-60(TB) leukemia
OVCAR-8 ovarian = tested on: OVCAR-8 ovarian
BT-549 breast = tested on: BT-549 breast
SR leukemia = tested on: SR leukemia
SK-MEL-28 melanoma = tested on: SK-MEL-28 melanoma
A549 NSCLC = tested on: A549 NSCLC
RPMI-8226 leukemia = tested on: RPMI-8226 leukemia
U251 CNS = tested on: U251 CNS
MOLT-4 leukemia = tested on: MOLT-4 leukemia
HCT-116 colon = tested on: HCT-116 colon
IGROV1 ovarian = tested on: IGROV1 ovarian
UO-31 renal = tested on: UO-31 renal
LOX IMVI melanoma = tested on: LOX IMVI melanoma
MDA-MB-231 breast = tested on: MDA-MB-231 breast
A498 renal = tested on: A498 renal
KM12 colon = tested on: KM12 colon
T-47D breast = tested on: T-47D breast
CAKI-1 renal = tested on: CAKI-1 renal

`COc1ccc2c(c1)C(=O)c1c-2c(NCCCN(C)C)nc2ccccc12` gave a GI50 (NCI-H23 lung) of 2780 nM, a TGI (NCI-H23 lung) of 10 µM and a GI50 (SF-268 CNS) of 1700 nM. For the same compound, the TGI (SF-268 CNS) was 4.71 µM, the GI50 (NCI-H522 lung) was 9.79 µM and the TGI (NCI-H522 lung) was 23.4 µM. The GI50 (MALME-3M melanoma) was 3.86 µM, the TGI (MALME-3M melanoma) was 15.5 µM and the GI50 (M14 melanoma) was 5.41 µM. The TGI (M14 melanoma) was 17.9 µM, the GI50 (PC-3 prostate) was 3.53 µM and the TGI (PC-3 prostate) was 14.2 µM. It also gave a GI50 (NCI-H226 lung) of 11.6 µM, a TGI (NCI-H226 lung) of 24 µM and a GI50 (CCRF-CEM leukemia) of 1480 nM. It also gave a TGI (CCRF-CEM leukemia) of 3.47 µM, a GI50 (SF-539 CNS) of 10.8 µM and a TGI (SF-539 CNS) of 24.6 µM. It also gave a GI50 (SK-MEL-2 melanoma) of 18.4 µM, a TGI (SK-MEL-2 melanoma) of 34.3 µM and a GI50 (HL-60(TB) leukemia) of 2630 nM. It also gave a TGI (HL-60(TB) leukemia) of 12.3 µM, a GI50 (OVCAR-8 ovarian) of 1740 nM and a TGI (OVCAR-8 ovarian) of 7.67 µM. The GI50 (BT-549 breast) was 21.8 µM, the TGI (BT-549 breast) was 62.3 µM and the GI50 (SR leukemia) was 1090 nM. The TGI (SR leukemia) was 3.58 µM, the GI50 (SK-MEL-28 melanoma) was 524 nM and the TGI (SK-MEL-28 melanoma) was 1940 nM. For the same compound, the GI50 (A549 NSCLC) was 1860 nM, the TGI (A549 NSCLC) was 6 µM and the GI50 (RPMI-8226 leukemia) was 1930 nM. For the same compound, the TGI (RPMI-8226 leukemia) was 4.39 µM, the GI50 (U251 CNS) was 1980 nM and the TGI (U251 CNS) was 4.42 µM. It also gave a GI50 (MOLT-4 leukemia) of 1430 nM, a TGI (MOLT-4 leukemia) of 11.1 µM and a GI50 (HCT-116 colon) of 1250 nM. For the same compound, the TGI (HCT-116 colon) was 2650 nM, the GI50 (IGROV1 ovarian) was 6.99 µM and the TGI (IGROV1 ovarian) was 19.9 µM. For the same compound, the GI50 (UO-31 renal) was 4.91 µM, the TGI (UO-31 renal) was 18.4 µM and the GI50 (LOX IMVI melanoma) was 1440 nM. It also gave a TGI (LOX IMVI melanoma) of 2820 nM, a GI50 (MDA-MB-231 breast) of 1980 nM and a TGI (MDA-MB-231 breast) of 11.6 µM. The GI50 (A498 renal) was 11.3 µM, the TGI (A498 renal) was 23.8 µM and the GI50 (KM12 colon) was 2050 nM. It also gave a TGI (KM12 colon) of 5.72 µM, a GI50 (T-47D breast) of 17.8 µM and a TGI (T-47D breast) of 34.2 µM. The GI50 (CAKI-1 renal) was 12.5 µM and the TGI (CAKI-1 renal) was 29.6 µM.
